Test results: patent US4920121A
Read-outs that look alike come from different tables or passages of the source.

What was measured:
[1] = system: male Charles River, CF-1 mice; assay: isolation-induced aggression test; details: for total fighting time (TFT): 60 minutes before testing, 3 minute test, vehicle controls 15.7 seconds
Description: The isolation-induced aggression test was conducted with male mice in an adaptation of the method of DaVanzo et al., Psychopharmacology, (Berlin) 9 210 (1966) whereby male Charles River, CF-1 mice, 16-20 g in weight were individually housed for a period of three weeks and then trained to attack an intruder mouse which had been group housed (10/cage). […] The total fighting time (TFT) in seconds was recorded during a 3 minute test period upon introduction of the intruder mouse into the cage of the aggressive mouse.

[2] = system: male CD rats (Charles River); assay: discrete trial conditioned avoidance responding (CAR) test; assay type: in vivo; details: Rattus norvegicus, ip, thirty minutes before the test, instant test procedure, read-out: ED50 (reduction in avoidance responding)
Description: The conditioned avoidance responding (CAR) test was conducted in male CD rats (Charles River) maintained at approximately 400-450 g body weight. Rats trained previously were placed in Plexiglas® experimental chambers equipped with a response lever, house light and sonalert. The steel grid chamber floor is wired for presentation of an electric shock. Each trial consists of a fifteen second warning tone conditioned stimulus, continuing for an additional fifteen seconds accompanied by electric shock (unconditioned stimulus). The rat can terminate a trial at any point by depressing the response lever. A response during the initial fifteen second warning tone ends the trial before shock delivery and is considered an avoidance response. A response occurring during shock delivery is an escape response. […] The ED50 of the test compound is calculated from the percentage reduction in avoidance responding and represents that dose at which only half the responses are made.

[3] = molecular target: 5-HT1A receptors; details: Martin et al., European J. of Pharmacol. 156 223 (1988); cited from earlier work
[4] = system: male CD rats (Charles River); details: i.p., reported by Martin et al. 1988; cited from earlier work
[5] = system: male, Charles River mice, CF-1; assay: rotorod motor coordination (RMC) test
Description: In order to differentiate between specific antiagressive effects and an inhibition of fighting due to debilitation, rotorod motor coordination (RMC) tests were conducted according to an adaptation of the method of Dunham et al., J. Am. Pharm. Assc. […] The amount of time spent on the rod (maximum of 60 seconds) was recorded and compared with the vehicle treated control animals. […] In comparison, the minimum effective dose (mg/kg i.p.) of buspirone in the isolation induced aggression study was 10.0 mg/kg and greater than 60.0 mg/kg in producing ataxia as evaluated by the rotorod motor coordination study.

[6] = molecular target: T1, post synaptic 5-HT1A receptor (Rattus norvegicus, UniProt P19327); details: for in vivo postsynaptic 5-HT1A activity profile in serotonin syndrome tests: rats, i.p.
T1 sequence (P19327 1-422): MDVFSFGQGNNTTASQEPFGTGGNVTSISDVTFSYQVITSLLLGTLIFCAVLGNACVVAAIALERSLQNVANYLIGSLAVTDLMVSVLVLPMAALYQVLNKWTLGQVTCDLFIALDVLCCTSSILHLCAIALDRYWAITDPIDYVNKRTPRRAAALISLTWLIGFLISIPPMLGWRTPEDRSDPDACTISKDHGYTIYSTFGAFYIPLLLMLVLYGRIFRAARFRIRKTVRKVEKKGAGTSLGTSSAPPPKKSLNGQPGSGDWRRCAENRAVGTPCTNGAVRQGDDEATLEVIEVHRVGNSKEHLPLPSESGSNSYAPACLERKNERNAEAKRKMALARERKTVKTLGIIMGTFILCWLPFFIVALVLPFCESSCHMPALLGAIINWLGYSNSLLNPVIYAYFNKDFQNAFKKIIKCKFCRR
Description: (§1) Serotonin syndrome tests were conducted according to the method of Smith et al., Pharmacol. Biochem. and Behav., 24 1513 (1986).
(§2) Male Sprague-Dawley CD rats (Charles River) weighing 200-300 g were housed 6/cage with food and water available ad libitum. Animals were allowed to acclimate to the animal colony for at least 1 week prior to testing. Rats were placed individually into plexiglas® observation cages with a layer of bedding covering the bottom. […] During the 15 minute pretreatment, subjects were scored for the presence of the 5-HT syndrome (agonist activity). After the 8-OH-DPAT injection, all subjects were scored for an additional 15 minutes to identify antagonist activity. Scoring the 5-HT syndrome consisted of rating the following behaviors: (1) forepaw treading, (2) head-weaving, (3) tremor, (4) hindlimb abduction, (5) flattened body posture, and (6 ) Straub tail on a 4-point ranked intensity scale with a maximum score of 18. Results were expressed as mean total score (+/-SEM) for induction of syndrome and for antagonism of syndrome.

[7] = molecular target: T1, post synaptic 5-HT1A receptor; assay: in vivo; details: ip
Description: as §1, §2

| Structure (SMILES) | total fighting time (TFT) ([1]; 0.5 mg/kg i.p.) [s] | total fighting time (TFT) ([1]; 1.0 mg/kg i.p.) [s] | total fighting time (TFT) ([1]; 3.0 mg/kg i.p.) [s] | ED50 [2] [mg/kg] | Ki [3] [nM] | ED50 (reduction in avoidance responding) [4] [mg/kg] | dosage at which mice became debilitated (rotorod) ([5]; intraperitoneally 60 minutes before rotorod) [mg/kg] | debilitating dose relative to dose that antagonized aggressive activity ([5]; rotorod vs isolation-induced aggression, mice i.p.) | antagonism of serotonin syndrome induced by 8-OH-DPAT ([6]; 33 mg/kg i.p., 15 minutes prior to 5.6 mg/kg i.p. 8-OH-DPAT) | induction of 5-HT syndrome (agonist activity) ([6]; 10 and 30 mg/kg i.p., scored during 15 minute pretreatment) | in vivo postsynaptic 5-HT1A activity profile in serotonin syndrome tests [6] | minimal effective dose ([1]; Mus musculus, ip, 1 h, read-out: minimum effective dose in the isolation induced aggression study) [mg/kg] | ED50 ([7]; read-out: agonist ED50) [mg/kg] | ED50 ([7]; read-out: antagonist ED50) [mg/kg] | minimum effective dose in producing ataxia (rotorod motor coordination) ([5]; mouse, in vivo, ip) |
| --- | --- | --- | --- | --- | --- | --- | --- | --- | --- | --- | --- | --- | --- | --- | --- |
| COc1ccccc1N1CCNCC1 | 5.1 | 0.7 | 0.1 | 10.6 | 9.5 | 5.6 | ≥ 30.0 | at least ten times the dose that antagonized aggressive activity | antagonized the serotonin syndrome | displayed agonist activity | weak partial agonist activity |  |  |  |  |
| O=C1CC2(CCCC2)CC(=O)N1CCCCN1CCN(c2ncccn2)CC1 [buspirone, reference compound] |  |  |  |  |  |  |  |  |  |  | partial agonist profile | 10 | 7 | 4 | greater than 60.0 mg/kg |
